{"source": "PubChem BioAssay (NCI)", "experiment_in_all_cases": "NCI tumour cell line growth inhibition, 48 h", "key": {"NCI-H460 lung": {"system": "NCI-H460 lung"}, "UACC-62 melanoma": {"system": "UACC-62 melanoma"}, "XF 498 CNS": {"system": "XF 498 CNS"}, "M19-MEL melanoma": {"system": "M19-MEL melanoma"}, "OVCAR-3 ovarian": {"system": "OVCAR-3 ovarian"}, "RXF 393 renal": {"system": "RXF 393 renal"}, "LXFL 529 NSCLC": {"system": "LXFL 529 NSCLC"}, "MALME-3M melanoma": {"system": "MALME-3M melanoma"}, "SNB-78 CNS": {"system": "SNB-78 CNS"}, "IGROV1 ovarian": {"system": "IGROV1 ovarian"}, "HL-60(TB) leukemia": {"system": "HL-60(TB) leukemia"}, "A549 NSCLC": {"system": "A549 NSCLC"}, "SR leukemia": {"system": "SR leukemia"}, "OVCAR-8 ovarian": {"system": "OVCAR-8 ovarian"}, "LOX IMVI melanoma": {"system": "LOX IMVI melanoma"}, "HCT-15 colon": {"system": "HCT-15 colon"}, "SK-MEL-2 melanoma": {"system": "SK-MEL-2 melanoma"}, "RXF-631 renal": {"system": "RXF-631 renal"}, "OVCAR-5 ovarian": {"system": "OVCAR-5 ovarian"}, "SNB-19 CNS": {"system": "SNB-19 CNS"}, "SK-OV-3 ovarian": {"system": "SK-OV-3 ovarian"}, "UACC-257 melanoma": {"system": "UACC-257 melanoma"}, "786-0 renal": {"system": "786-0 renal"}, "EKVX NSCLC": {"system": "EKVX NSCLC"}, "RPMI-8226 leukemia": {"system": "RPMI-8226 leukemia"}, "U251 CNS": {"system": "U251 CNS"}, "UO-31 renal": {"system": "UO-31 renal"}, "SN12C renal": {"system": "SN12C renal"}, "HOP-92 NSCLC": {"system": "HOP-92 NSCLC"}, "MOLT-4 leukemia": {"system": "MOLT-4 leukemia"}, "KM20L2 colon": {"system": "KM20L2 colon"}, "OVCAR-4 ovarian": {"system": "OVCAR-4 ovarian"}, "COLO 205 colon": {"system": "COLO 205 colon"}, "HT29 colon": {"system": "HT29 colon"}, "NCI-H226 lung": {"system": "NCI-H226 lung"}, "HCT-116 colon": {"system": "HCT-116 colon"}, "SW-620 colon": {"system": "SW-620 colon"}, "ACHN renal": {"system": "ACHN renal"}, "DMS 114 small cell lung": {"system": "DMS 114 small cell lung"}, "NCI-H23 lung": {"system": "NCI-H23 lung"}, "M14 melanoma": {"system": "M14 melanoma"}, "K-562 leukemia": {"system": "K-562 leukemia"}, "SF-539 CNS": {"system": "SF-539 CNS"}, "DMS 273 small cell lung": {"system": "DMS 273 small cell lung"}, "CCRF-CEM leukemia": {"system": "CCRF-CEM leukemia"}, "SF-268 CNS": {"system": "SF-268 CNS"}, "CAKI-1 renal": {"system": "CAKI-1 renal"}, "HOP-62 NSCLC": {"system": "HOP-62 NSCLC"}, "KM12 colon": {"system": "KM12 colon"}, "SF-295 CNS": {"system": "SF-295 CNS"}, "NCI-H522 lung": {"system": "NCI-H522 lung"}}, "note": "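Results reflect a 48-hour exposure of cells in 96-well plates to compound at five concentrations. TGI: concentration producing complete growth inhibition.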"}
{"smiles": "O=c1cccccc1NCCNc1cccccc1=O", "values": [{"measurement": "TGI", "setting": "NCI-H460 lung", "result": "> 100", "unit": "µM"}, {"measurement": "TGI", "setting": "UACC-62 melanoma", "result": "> 100", "unit": "µM"}, {"measurement": "TGI", "setting": "XF 498 CNS", "result": "> 100", "unit": "µM"}, {"measurement": "TGI", "setting": "M19-MEL melanoma", "result": "> 100", "unit": "µM"}, {"measurement": "TGI", "setting": "OVCAR-3 ovarian", "result": "> 100", "unit": "µM"}, {"measurement": "TGI", "setting": "RXF 393 renal", "result": "> 100", "unit": "µM"}, {"measurement": "TGI", "setting": "LXFL 529 NSCLC", "result": "> 100", "unit": "µM"}, {"measurement": "TGI", "setting": "MALME-3M melanoma", "result": 47.9, "unit": "µM"}, {"measurement": "TGI", "setting": "SNB-78 CNS", "result": "> 100", "unit": "µM"}, {"measurement": "TGI", "setting": "IGROV1 ovarian", "result": "> 100", "unit": "µM"}, {"measurement": "TGI", "setting": "HL-60(TB) leukemia", "result": "> 100", "unit": "µM"}, {"measurement": "TGI", "setting": "A549 NSCLC", "result": "> 100", "unit": "µM"}, {"measurement": "TGI", "setting": "SR leukemia", "result": "> 100", "unit": "µM"}, {"measurement": "TGI", "setting": "OVCAR-8 ovarian", "result": "> 100", "unit": "µM"}, {"measurement": "TGI", "setting": "LOX IMVI melanoma", "result": "> 100", "unit": "µM"}, {"measurement": "TGI", "setting": "HCT-15 colon", "result": "> 100", "unit": "µM"}, {"measurement": "TGI", "setting": "SK-MEL-2 melanoma", "result": "> 100", "unit": "µM"}, {"measurement": "TGI", "setting": "RXF-631 renal", "result": "> 100", "unit": "µM"}, {"measurement": "TGI", "setting": "OVCAR-5 ovarian", "result": "> 100", "unit": "µM"}, {"measurement": "TGI", "setting": "SNB-19 CNS", "result": "> 100", "unit": "µM"}, {"measurement": "TGI", "setting": "SK-OV-3 ovarian", "result": "> 100", "unit": "µM"}, {"measurement": "TGI", "setting": "UACC-257 melanoma", "result": "> 100", "unit": "µM"}, {"measurement": "TGI", "setting": "786-0 renal", "result": "> 100", "unit": "µM"}, {"measurement": "TGI", "setting": "EKVX NSCLC", "result": "> 100", "unit": "µM"}, {"measurement": "TGI", "setting": "RPMI-8226 leukemia", "result": "> 100", "unit": "µM"}, {"measurement": "TGI", "setting": "U251 CNS", "result": "> 100", "unit": "µM"}, {"measurement": "TGI", "setting": "UO-31 renal", "result": "> 100", "unit": "µM"}, {"measurement": "TGI", "setting": "SN12C renal", "result": 27.9, "unit": "µM"}, {"measurement": "TGI", "setting": "HOP-92 NSCLC", "result": "> 100", "unit": "µM"}, {"measurement": "TGI", "setting": "MOLT-4 leukemia", "result": "> 100", "unit": "µM"}, {"measurement": "TGI", "setting": "KM20L2 colon", "result": "> 100", "unit": "µM"}, {"measurement": "TGI", "setting": "OVCAR-4 ovarian", "result": "> 100", "unit": "µM"}, {"measurement": "TGI", "setting": "COLO 205 colon", "result": "> 100", "unit": "µM"}, {"measurement": "TGI", "setting": "HT29 colon", "result": "> 100", "unit": "µM"}, {"measurement": "TGI", "setting": "NCI-H226 lung", "result": "> 100", "unit": "µM"}, {"measurement": "TGI", "setting": "HCT-116 colon", "result": "> 100", "unit": "µM"}, {"measurement": "TGI", "setting": "SW-620 colon", "result": "> 100", "unit": "µM"}, {"measurement": "TGI", "setting": "ACHN renal", "result": "> 100", "unit": "µM"}, {"measurement": "TGI", "setting": "DMS 114 small cell lung", "result": "> 100", "unit": "µM"}, {"measurement": "TGI", "setting": "NCI-H23 lung", "result": "> 100", "unit": "µM"}, {"measurement": "TGI", "setting": "M14 melanoma", "result": "> 100", "unit": "µM"}, {"measurement": "TGI", "setting": "K-562 leukemia", "result": "> 100", "unit": "µM"}, {"measurement": "TGI", "setting": "SF-539 CNS", "result": "> 100", "unit": "µM"}, {"measurement": "TGI", "setting": "DMS 273 small cell lung", "result": "> 100", "unit": "µM"}, {"measurement": "TGI", "setting": "CCRF-CEM leukemia", "result": "> 100", "unit": "µM"}, {"measurement": "TGI", "setting": "SF-268 CNS", "result": "> 100", "unit": "µM"}, {"measurement": "TGI", "setting": "CAKI-1 renal", "result": "> 100", "unit": "µM"}, {"measurement": "TGI", "setting": "HOP-62 NSCLC", "result": "> 100", "unit": "µM"}, {"measurement": "TGI", "setting": "KM12 colon", "result": "> 100", "unit": "µM"}, {"measurement": "TGI", "setting": "SF-295 CNS", "result": "> 100", "unit": "µM"}, {"measurement": "TGI", "setting": "NCI-H522 lung", "result": "> 100", "unit": "µM"}]}
